# Assay results from US7645802B2 (Biovail Laboratories International SRL., priority 2005, dated 2010).
# Counter-ions that a name gives are not always drawn.
# Assays:
# [1] = tested on: chemically-induced seizures (induced by pentylenetetrazole) in mice; conditions: cited from earlier work
# [2] = forced degradation of bupropion HBr and HCl in the presence of excipients at 55° C., 55° C./100% RH, 100° C., 105° C. (incl. TGA at 100° C.); format: physicochemical; conditions: in the presence of excipients, 55° C., 55° C./100% RH, 100° C., 105° C.
# Procedure: Further forced degradation studies were carried out at 55° C., at 55° C. and 100% relative humidity, at 100° C., and at 105° C. on both the HCl and HBr Bupropion salts in the presence of excipients. […] FIG. 53 is a graph showing the loss of each salt over time in a TGA experiment at 100° C.
# CD-1 mice = experiment: clonic convulsions in CD-1 mice after intraperitoneal dosing (range finding and main study)
# Procedure: Two studies were performed to investigate the relative proconvulsant properties of the two bupropion salts. In the first instance a range finding study was performed to establish the appropriate dose range for the main study. In each study the mice were divided into two dose groups and injected intraperitoneally with either bupropion HCl or bupropion HBr.
# A clonic convulsion was defined as a stiffening of the animal followed by jerking movements. The convulsions were classified as mild, moderate and severe according to the following descriptions.
# Mild: Head and tail slightly extended and little jerking
# Moderate: Head and tail fully extended with some jerking
# Severe: Head and tail fully extended with strong jerking
# Post-treatment findings recorded included continuous observation for 120 minutes for evidence of clonic convulsions, and intermittent (fixed) observations for 24 hours for other signs, including tonic convulsions, movement, activity, paralysis, gait and evidence of recovery.
# mice = experiment: Proconvulsant properties of bupropion salts: clonic convulsions in mice; conditions: for Mean Number of Convulsions/Mouse / Total Number of convulsions: N=13
# Procedure: Number of convulsions and the intensity of the convulsions were recorded.
# Mild: Head and tail slightly extended and little jerking; Moderate: Head and tail fully extended with some jerking; Severe: Head and tail fully extended with strong jerking. […] Step 2: To further investigate the patterns of convulsion occurrence using loglinear Poisson regression models. The number of convulsions was analyzed using the loglinear Poisson regression models with formulation, dose, and severity as predictors.
# [3] = Closed vial / closed glass bottle stability (40° C./75% RH) of bupropion salt APIs; format: physicochemical
# [4] = Dynamic Vapour Sorption (DVS) analysis
# [5] = Solubility and other physical properties, Bupropion HBr vs Bupropion HCl; conditions: HCl from Erregierre, HBr from Chemi; hydrobromide
# [6] = 100 mg/kg i.p., pooled data N = 13/dose group, hydrobromide
# [7] = 150 mg/kg i.p., pooled data N = 13/dose group, hydrobromide
# [8] = 150 mg/kg, Moderate, hydrobromide
# [9] = 150 mg/kg, Severe, hydrobromide
# [10] = 10-Days, closed glass bottle 40 C./75% RH, HBr Lot# STN07491, HCl Lot# STN06973, hydrobromide
# [11] = 10 Days, closed glass bottle 40 C./75% RH, HBr Lot# STN07492, HCl Lot# STN06978, hydrobromide
# [12] = 14-Days, closed glass bottle 40° C./75% RH, HBr Lot# STN07492, HCl L# STN06973, hydrobromide
# [13] = 24 Days, closed glass bottle 40° C./75% RH, HBr Lot# STN07492, HCl L# STN06973, hydrobromide
# [14] = Initial, closed glass bottle 40 C./75% RH, HBr Lot# STN07491, HCl Lot# STN06973, hydrobromide
# [15] = Initial, closed glass bottle 40 C./75% RH, HBr Lot# STN07492, HCl Lot# STN06978, hydrobromide
# [16] = Initial, closed glass bottle 40° C./75% RH, HBr Lot# STN07492, HCl L# STN06973, hydrobromide
smiles,measurement,setting,value
[Br-].[Na+] [sodium bromide],ED50 / therapeutic dose level against pentylenetetrazole-induced seizures,[1],910 mg/kg
"CC(NC(C)(C)C)C(=O)c1cccc(Cl)c1 (stereo not shown) [Bupropion HBr, bupropion hydrobromide]",stability / degradation compared to bupropion HCl,[2],significant improvements in stability compared to bupropion HCl
same,Mean Intensity of Convulsions/Mouse % of Total: Mild,CD-1 mice; [6],90.0 % of Total
same,Mean Intensity of Convulsions/Mouse % of Total: Moderate,CD-1 mice; [6],10.0 % of Total
same,Mean Intensity of Convulsions/Mouse % of Total: Severe,CD-1 mice; [6],0.0 % of Total
same,Mean Number of Convulsions/Mouse,CD-1 mice; [6],0.8
same,numbers of mice that had convulsions in the dose group,CD-1 mice; [6],3/13
same,Mean Number of Convulsions/Mouse,"CD-1 mice; 100 mg/kg i.p., range-finding study, N = 3/dose group, hydrobromide",0
same,numbers of mice that had convulsions in the dose group,"CD-1 mice; 100 mg/kg i.p., second (main) study, N = 10/dose group",3/10
same,Mean Number of Convulsions/Mouse,"CD-1 mice; 100 mg/kg i.p., second (main) study, N = 10/dose group, hydrobromide",1.0
same,Mean Intensity of Convulsions/Mouse % of Total: Mild,CD-1 mice; [7],21.3 % of Total
same,Mean Intensity of Convulsions/Mouse % of Total: Moderate,CD-1 mice; [7],25.7 % of Total
same,Mean Intensity of Convulsions/Mouse % of Total: Severe,CD-1 mice; [7],53.0 % of Total
same,Mean Number of Convulsions/Mouse,CD-1 mice; [7],46.6
same,Mean Number of Convulsions/Mouse,"CD-1 mice; 150 mg/kg i.p., range-finding study, N = 3/dose group, hydrobromide",11.0
same,Mean Number of Convulsions/Mouse,"CD-1 mice; 150 mg/kg i.p., second (main) study, N = 10/dose group, hydrobromide",57.3
same,numbers of mice that had convulsions in the dose group,"CD-1 mice; […] i.p., pooled data N = 13/dose group, hydrobromide",11/13
same,numbers of mice that had convulsions in the dose group,"CD-1 mice; […] i.p., second (main) study, N = 10/dose group, hydrobromide",8/10
same,recovery from other treatment-related signs,CD-1 mice; range finding study,tendency to recover more quickly
same,threshold for tonic convulsions,"CD-1 mice; range finding study, i.p., hydrobromide",125 mg/kg
same,"Mean Number of Convulsions/Mouse, cumulative","mice; 100 mg/kg, All, hydrobromide",0.77
same,Mean Number of Convulsions/Mouse,"mice; 100 mg/kg, Mild, hydrobromide",0.69
same,Total Number of convulsions,"mice; 100 mg/kg, Mild, hydrobromide",9
same,Mean Number of Convulsions/Mouse,"mice; 100 mg/kg, Moderate",0.08
same,"Mean Number of Convulsions/Mouse, cumulative","mice; 100 mg/kg, Severe + Moderate, hydrobromide",0.08
same,Mean Number of Convulsions/Mouse,"mice; 100 mg/kg, Severe, 120 min observation, hydrobromide",0.0
same,Total Number of convulsions,"mice; 100 mg/kg, Severe, hydrobromide",0
same,"Mean Number of Convulsions/Mouse, cumulative","mice; 150 mg/kg, All, hydrobromide",46.61
same,Mean Number of Convulsions/Mouse,"mice; 150 mg/kg, Mild, hydrobromide",9.92
same,Total Number of convulsions,"mice; 150 mg/kg, Mild, hydrobromide",129
same,Mean Number of Convulsions/Mouse,mice; [8],12.00
same,Total Number of convulsions,mice; [8],156
same,"Mean Number of Convulsions/Mouse, cumulative","mice; 150 mg/kg, Severe + Moderate, hydrobromide",36.69
same,Mean Number of Convulsions/Mouse,mice; [9],24.69
same,Total Number of convulsions,mice; [9],321
same,% Assay,[3]; [10],98.2%
same,% Impurities 3-CBZ,[3]; [10],0.070%
same,% Impurities 20U78/dilu,[3]; [10],0.051%
same,% Impurities 827U76,[3]; [10],0.039%
same,% Impurities 852U77,[3]; [10],0.125%
same,% Impurities Total (%),[3]; [10],0.42%
same,% Impurities Total unknown,[3]; [10],0.129%
same,% Assay,[3]; [11],99.2%
same,% Impurities 3-CBZ,[3]; [11],0.031%
same,% Impurities 20U78/dilu,[3]; [11],0.044%
same,% Impurities 852U77,[3]; [11],0.055%
same,% Impurities Total (%),[3]; [11],0.24%
same,% Impurities Total unknown,[3]; [11],0.15%
same,% Impurities 827U76,"[3]; 14-Days, closed glass bottle 40° C./75% RH, HBr Lot# STN07492, HCl L# STN06973",0.012%
same,% Assay,[3]; [12],98.8%
same,% Impurities 3-CBZ,[3]; [12],0.015%
same,% Impurities 20U78/dilu,[3]; [12],0.048%
same,% Impurities 852U77,[3]; [12],0.058%
same,% Impurities Total (%),[3]; [12],0.23%
same,% Impurities Total unknown,[3]; [12],0.105%
same,% Assay,[3]; [13],99.5%
same,% Impurities 3-CBZ,[3]; [13],0.022%
same,% Impurities 20U78/dilu,[3]; [13],0.038%
same,% Impurities 827U76,[3]; [13],0.016%
same,% Impurities 852U77,[3]; [13],0.052%
same,% Impurities Total (%),[3]; [13],0.23%
same,% Impurities Total unknown,[3]; [13],0.104%
same,% Assay,[3]; [14],99.5%
same,% Impurities 3-CBZ,[3]; [14],0.011%
same,% Impurities 20U78/dilu,[3]; [14],0.041%
same,% Impurities Total (%),[3]; [14],0.17%
same,% Impurities Total unknown,[3]; [14],0.129%
same,% Assay,[3]; [15],99.6%
same,% Impurities 3-CBZ,[3]; [15],0.007%
same,% Impurities 20U78/dilu,[3]; [15],0.041%
same,% Impurities Total (%),[3]; [15],0.23%
same,% Impurities Total unknown,[3]; [15],0.194%
same,% Assay,[3]; [16],99.6%
same,% Impurities 3-CBZ,[3]; [16],0.007%
same,% Impurities 20U78/dilu,[3]; [16],0.044%
same,% Impurities 852U77,[3]; [16],0.009%
same,% Impurities Total (%),[3]; [16],0.16%
same,% Impurities Total unknown,[3]; [16],0.098%
same,solubility,"physchem; organic solvent or mixture, EtOH",92 mg/mL
same,solubility,"physchem; organic solvent or mixture, IPA",12 mg/mL
same,solubility,physchem; water,143 mg/mL
same,"hygroscopicity (DVS, words)",[4]; 0% RH-90% RH,non-hygroscopic
same,maximum water uptake (DVS),[4]; at 90% RH,0.14 % weight
same,PS (Malvern) 10%,[5],10% 72 μm
same,PS (Malvern) 50%,[5],50% 245 μm
same,PS (Malvern) 90%,[5],90% 657 μm
same,moisture content KF,[5],0.00%
same,pH (aq. 0.5%),[5],5.92
